Patent US4211772A, “Benzopyran glycoside acetals and ketals” (Laboratoires Sarget, priority 1977, dated 1980)
≈ marks a conversion by molar mass, not a printed value. Like-named read-outs stand apart in the source and are kept apart here.

Key:
[1] = test system: capillary resistance; experiment: Capillaroprotecting effects: capillary resistance; type: in vivo, male OFA EOPS rats
Description: (§1) Capillaroprotecting effects
The capillary resistance was determined by a variant of the method of Charlier et al, Arch. Inter. Physiol.

[2] = Solubilities in water; type: physicochemical; settings: water; read-out: Solubilities in water
[3] = target: T1, Aldose Reductase (Bos taurus, UniProt P16116); experiment: Inhibition of aldose reductase in vitro (enzyme from beef eye lenses, glyceraldehyde substrate); type: biochemical; settings: in DMF solution, read-out: percentages of inhibition (aldose reductase); for inhibition at 100 µM: 10^-4 mole/l; for inhibition at 10 µM: 10^-5 mole/l; for inhibition at 1 µM: 10^-6 mole/l; for inhibition at 0.1 µM: 10^-7 mole/l
T1 construct: The enzyme is extracted from beef eye lenses; from tissue; host or cells: beef eye lenses
Excerpt: Inhibition of Aldose Reductase In Vitro
The reoxidation of NADPH coupled to the enzymatic reaction was followed spectrophotometrically at 340 nm.

[4] = test system: capillary permeability; experiment: Capillaroprotecting effects: capillary permeability; type: in vivo, conventional male Wistar rats
Description: as §1
The capillary permeability was determined by the method of Charlier et al, Arch. Inter. Physiol.

[5] = test system: OF1 EOPS mice; experiment: Acute i.p. toxicity in OF1 EOPS mice; type: in vivo; settings: neutralized borate buffer, over 7 days
Description: The acute toxicity of the compounds of the present invention was determined in mice.

[6] = test system: carragenin edema; experiment: Anti-inflammatory activity: carragenin edema test; type: in vivo; settings: for % inhibition of carragenin edema: borate buffer pH 7, 24 h; for inhibition in vivo at 75 mg/kg / inhibition in vivo at 100 mg/kg / inhibition in vivo at 150 mg/kg / inhibition in vivo at 200 mg/kg / inhibition in vivo at 50 mg/kg: Rattus norvegicus, ip
Outline: (§2)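 Male Wistar EOPS rats receive 0.1 ml of 5% carragenin suspension in physiological serum into the hind-paw metatarsal muscle, with test substance given i.p. in neutralized solution at the same time. Paw edema is measured by plethysmometry at several times after carragenin and reported as % inhibition against pH-matched physiological serum controls.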

[7] = Anti-inflammatory activity: carragenin edema test; type: in vivo; settings: rat, in vivo, ip, borate buffer pH 7
Outline: as §2

[8] = 1 h, pH 7, read-out: % inhibition of carragenin edema, 75 mg/kg i.p., borate buffer pH 7, 1 h
[9] = 1 h, pH 7, read-out: % inhibition of carragenin edema, 75 mg/kg i.p., borate buffer pH 7, 1 h 1/2
[10] = 1 h, pH 7, read-out: % inhibition of carragenin edema, 100 mg/kg i.p., borate buffer pH 7, 1 h
[11] = 1 h, pH 7, read-out: % inhibition of carragenin edema, 100 mg/kg i.p., borate buffer pH 7, 1 h 1/2
[12] = 1 h, pH 7, read-out: % inhibition of carragenin edema, 150 mg/kg i.p., borate buffer pH 7, 1 h
[13] = 1 h, pH 7, read-out: % inhibition of carragenin edema, 150 mg/kg i.p., borate buffer pH 7, 1 h 1/2
[14] = 2 h, pH 7, read-out: % inhibition of carragenin edema, 75 mg/kg i.p., borate buffer pH 7, 2 h
[15] = 2 h, pH 7, read-out: % inhibition of carragenin edema, 100 mg/kg i.p., borate buffer pH 7, 2 h
[16] = 2 h, pH 7, read-out: % inhibition of carragenin edema, 150 mg/kg i.p., borate buffer pH 7, 2 h
[17] = 3 h, pH 7, read-out: % inhibition of carragenin edema, 75 mg/kg i.p., borate buffer pH 7, 3 h
[18] = 3 h, pH 7, read-out: % inhibition of carragenin edema, 100 mg/kg i.p., borate buffer pH 7, 3 h
[19] = 3 h, pH 7, read-out: % inhibition of carragenin edema, 150 mg/kg i.p., borate buffer pH 7, 3 h
[20] = 4 h, pH 7, read-out: % inhibition of carragenin edema, 75 mg/kg i.p., borate buffer pH 7, 4 h
[21] = 4 h, pH 7, read-out: % inhibition of carragenin edema, 100 mg/kg i.p., borate buffer pH 7, 4 h
[22] = 4 h, pH 7, read-out: % inhibition of carragenin edema, 150 mg/kg i.p., borate buffer pH 7, 4 h
[23] = 5 h, pH 7, read-out: % inhibition of carragenin edema, 75 mg/kg i.p., borate buffer pH 7, 5 h
[24] = 5 h, pH 7, read-out: % inhibition of carragenin edema, 100 mg/kg i.p., borate buffer pH 7, 5 h
[25] = 5 h, pH 7, read-out: % inhibition of carragenin edema, 150 mg/kg i.p., borate buffer pH 7, 5 h
[26] = 6 h, pH 7, read-out: % inhibition of carragenin edema, 75 mg/kg i.p., borate buffer pH 7, 6 h
[27] = 6 h, pH 7, read-out: % inhibition of carragenin edema, 100 mg/kg i.p., borate buffer pH 7, 6 h
[28] = 6 h, pH 7, read-out: % inhibition of carragenin edema, 150 mg/kg i.p., borate buffer pH 7, 6 h
[29] = read-out: % inhibition of carragenin edema, 75 mg/kg i.p., borate buffer pH 7, 1/2 h
[30] = read-out: % inhibition of carragenin edema, 100 mg/kg i.p., borate buffer pH 7, 1/2 h
[31] = read-out: % inhibition of carragenin edema, 150 mg/kg i.p., borate buffer pH 7, 1/2 h

SMILES: C[C@@H]1O[C@@H](Oc2c(-c3ccc(O)c(O)c3)oc3cc(O)cc(O)c3c2=O)[C@@H]2OC(C)(C)O[C@@H]2[C@H]1O [No. 3, 3-O-(2,3-O,O-isopropylidene-α-L-rhamnosyl)-quercetin]
- % of animals for which the effect is ≥ 25 u cm Hg/h ([1]; 50 mg/kg i.p.): 40%
- capillary resistance, effect observed ([1]; 50 mg/kg i.p.): 19.5 ± 7.4 u cm Hg/h
- % of animals for which the effect is ≥ 25 u cm Hg/h ([1]; 100 mg/kg i.p.): 80%
- capillary resistance, effect observed ([1]; 100 mg/kg i.p.): 34.75 ± 11.1 u cm Hg/h
- % of animals for which the effect is ≥ 25 u cm Hg/h ([1]; 200 mg/kg i.p.): 100%
- capillary resistance, effect observed ([1]; 200 mg/kg i.p.): 56 ± 11.3 u cm Hg/h
- solubility [2]: 1600 µg/mL (≈ 3.28 mM)
- inhibition at 100 µM [3]: 100%
- inhibition at 10 µM [3]: 92%
- inhibition at 1 µM [3]: 80%
- inhibition at 0.1 µM [3]: 40%
- percentage reduction of capillary permeability ([4]; 50 mg/kg i.p.): 21%
- percentage reduction of capillary permeability ([4]; 100 mg/kg i.p.): 25%
- percentage reduction of capillary permeability ([4]; 200 mg/kg i.p.): 59%
- dose until which no mortality resulted [5]: 400 mg/kg
- % inhibition of carragenin edema ([6]; 75 mg/kg i.p.): 21%
- % inhibition of carragenin edema ([6]; 100 mg/kg i.p.): 17%
- % inhibition of carragenin edema ([6]; 150 mg/kg i.p.): 11%
- % inhibition of carragenin edema ([6]; 200 mg/kg i.p.): 0%
- inhibition in vivo at 75 mg/kg [6, 8]: 0%
- inhibition in vivo at 75 mg/kg [6, 9]: 0%
- inhibition in vivo at 100 mg/kg [6, 10]: 55%
- inhibition in vivo at 100 mg/kg [6, 11]: 41%
- inhibition in vivo at 150 mg/kg [6, 12]: 0%
- inhibition in vivo at 150 mg/kg [6, 13]: 0%
- inhibition in vivo at 200 mg/kg ([6]; 1 h, pH 7, read-out: % inhibition of carragenin edema, 200 mg/kg i.p., borate buffer pH 7, 1 h): 45%
- inhibition in vivo at 200 mg/kg ([6]; 1 h, pH 7, read-out: % inhibition of carragenin edema, 200 mg/kg i.p., borate buffer pH 7, 1 h 1/2): 12%
- inhibition in vivo at 75 mg/kg [6, 14]: 10%
- inhibition in vivo at 100 mg/kg [6, 15]: 30%
- inhibition in vivo at 150 mg/kg [6, 16]: 20%
- inhibition in vivo at 200 mg/kg ([6]; 2 h, pH 7, read-out: % inhibition of carragenin edema, 200 mg/kg i.p., borate buffer pH 7, 2 h): 0%
- inhibition in vivo at 75 mg/kg [6, 17]: 6%
- inhibition in vivo at 100 mg/kg [6, 18]: 19%
- inhibition in vivo at 150 mg/kg [6, 19]: 0%
- inhibition in vivo at 200 mg/kg ([6]; 3 h, pH 7, read-out: % inhibition of carragenin edema, 200 mg/kg i.p., borate buffer pH 7, 3 h): 0%
- inhibition in vivo at 75 mg/kg [6, 20]: 3%
- inhibition in vivo at 100 mg/kg [6, 21]: 18%
- inhibition in vivo at 150 mg/kg [6, 22]: 2%
- inhibition in vivo at 200 mg/kg ([6]; 4 h, pH 7, read-out: % inhibition of carragenin edema, 200 mg/kg i.p., borate buffer pH 7, 4 h): 0%
- inhibition in vivo at 75 mg/kg [6, 23]: 6%
- inhibition in vivo at 100 mg/kg [6, 24]: 19%
- inhibition in vivo at 150 mg/kg [6, 25]: 3%
- inhibition in vivo at 200 mg/kg ([6]; 5 h, pH 7, read-out: % inhibition of carragenin edema, 200 mg/kg i.p., borate buffer pH 7, 5 h): 2%
- inhibition in vivo at 75 mg/kg [6, 26]: 10%
- inhibition in vivo at 100 mg/kg [6, 27]: 18%
- inhibition in vivo at 150 mg/kg [6, 28]: 8%
- inhibition in vivo at 200 mg/kg ([6]; 6 h, pH 7, read-out: % inhibition of carragenin edema, 200 mg/kg i.p., borate buffer pH 7, 6 h): 1%
- inhibition in vivo at 75 mg/kg [6, 29]: 26%
- inhibition in vivo at 100 mg/kg [6, 30]: 45%
- inhibition in vivo at 150 mg/kg [6, 31]: 26%
- inhibition in vivo at 200 mg/kg ([6]; read-out: % inhibition of carragenin edema, 200 mg/kg i.p., borate buffer pH 7, 1/2 h): 40%

SMILES: C[C@@H]1O[C@@H](Oc2c(-c3ccc(O)c(O)c3)oc3cc(O)cc(O)c3c2=O)[C@@H]2OC3(CCCCC3)O[C@@H]2[C@H]1O [No. 7, 3-O-(2,3-O,O-cyclohexylidene-α-L-rhamnosyl)-quercetin]
- solubility [2]: < 100 µg/mL
- inhibition at 100 µM [3]: 91%
- inhibition at 10 µM [3]: 95%
- inhibition at 1 µM [3]: 84%
- inhibition at 0.1 µM [3]: 87%
- % inhibition of carragenin edema ([6]; 50 mg/kg i.p.): 10%
- % inhibition of carragenin edema ([6]; 75 mg/kg i.p.): 84%
- % inhibition of carragenin edema ([6]; 100 mg/kg i.p.): 67%
- % inhibition of carragenin edema ([6]; 150 mg/kg i.p.): 87%
- inhibition in vivo at 50 mg/kg ([6]; 1 h, pH 7, read-out: % inhibition of carragenin edema, 50 mg/kg i.p., borate buffer pH 7, 1 h): 14%
- inhibition in vivo at 50 mg/kg ([6]; 1 h, pH 7, read-out: % inhibition of carragenin edema, 50 mg/kg i.p., borate buffer pH 7, 1 h 1/2): 22%
- inhibition in vivo at 75 mg/kg [6, 8]: 73%
- inhibition in vivo at 75 mg/kg [6, 9]: 91%
- inhibition in vivo at 100 mg/kg [6, 10]: 51%
- inhibition in vivo at 100 mg/kg [6, 11]: 52%
- inhibition in vivo at 150 mg/kg [6, 12]: 89%
- inhibition in vivo at 150 mg/kg [6, 13]: 97%
- inhibition in vivo at 50 mg/kg ([6]; 2 h, pH 7, read-out: % inhibition of carragenin edema, 50 mg/kg i.p., borate buffer pH 7, 2 h): 16%
- inhibition in vivo at 75 mg/kg [6, 14]: 89%
- inhibition in vivo at 100 mg/kg [6, 15]: 48%
- inhibition in vivo at 150 mg/kg [6, 16]: 97%
- inhibition in vivo at 50 mg/kg ([6]; 3 h, pH 7, read-out: % inhibition of carragenin edema, 50 mg/kg i.p., borate buffer pH 7, 3 h): 23%
- inhibition in vivo at 75 mg/kg [6, 17]: 86%
- inhibition in vivo at 100 mg/kg [6, 18]: 45%
- inhibition in vivo at 150 mg/kg [6, 19]: 94%
- inhibition in vivo at 50 mg/kg ([6]; 4 h, pH 7, read-out: % inhibition of carragenin edema, 50 mg/kg i.p., borate buffer pH 7, 4 h): 21%
- inhibition in vivo at 75 mg/kg [6, 20]: 81%
- inhibition in vivo at 100 mg/kg [6, 21]: 46%
- inhibition in vivo at 150 mg/kg [6, 22]: 89%
- inhibition in vivo at 50 mg/kg ([6]; 5 h, pH 7, read-out: % inhibition of carragenin edema, 50 mg/kg i.p., borate buffer pH 7, 5 h): 7%
- inhibition in vivo at 75 mg/kg [6, 23]: 83%
- inhibition in vivo at 100 mg/kg [6, 24]: 45%
- inhibition in vivo at 150 mg/kg [6, 25]: 91%
- inhibition in vivo at 50 mg/kg ([6]; 6 h, pH 7, read-out: % inhibition of carragenin edema, 50 mg/kg i.p., borate buffer pH 7, 6 h): 6%
- inhibition in vivo at 75 mg/kg [6, 26]: 81%
- inhibition in vivo at 100 mg/kg [6, 27]: 43%
- inhibition in vivo at 150 mg/kg [6, 28]: 86%
- inhibition in vivo at 50 mg/kg ([6]; read-out: % inhibition of carragenin edema, 50 mg/kg i.p., borate buffer pH 7, 1/2 h): 0%
- inhibition in vivo at 75 mg/kg [6, 29]: 48%
- inhibition in vivo at 100 mg/kg [6, 30]: 21%
- inhibition in vivo at 150 mg/kg [6, 31]: 70%
- mortality at 24 h ([7]; 100 mg/kg i.p.): 20%
- mortality at 5 h ([7]; 150 mg/kg i.p.): 80%
